Patent US20160067270A1, “USE OF GINSENOSIDE F2 FOR PROPHYLAXIS AND TREATMENT OF LIVER DISEASE” (priority 2014, published 2016)

Legend:
mouse serum = test: ELISA of mouse serum (cytokines); format: in vivo; conditions: compared with real-time PCR results; FIG. 6e
Description: (§1) Mice were fed with 3 g/kg of ethanol together with a normal diet every day for 2 weeks. In this regard, Group 1 (E+Veh) was fed with vehicle, and Group 2 (E+GF2) was fed with ginsenoside F2.
(§2) Further, the isolated monocytes were subjected to real-time PCR. As a result, expression of the inflammatory cytokines TNF-α, IL-6, and IL-17 increased by alcohol was inhibited by ginsenoside F2, and expression of anti-inflammatory cytokine IL-10 was increased thereby (FIG. 6d). These effects are consistent with the results of ELISA of mouse serum (FIG. 6e).

[1] = system: hepatic stellate cells separated from mouse liver; test: Lipogenesis-related index in hepatic stellate cells separated from mouse liver; format: in vivo; conditions: EtOH+GF2 vs EtOH+Vehicle; FIG. 4b
Method: (§3) 50 mg/kg of ginsenoside F2 (indicated by GF2 in Drawing) dissolved in 3 g/kg of ethanol, together with a normal diet, were orally administered to 8-week-old male mice (weighing 25 g to 28 g) between 3 PM and 4 PM every day for 2 weeks. After 2 weeks, they were sacrificed, and the following experiment was performed.

isolated monocytes = test: Real-time PCR of isolated hepatic monocytes of ethanol-fed mice; format: in vivo; conditions: FIG. 6d
Description: as §1, §2

glioblastoma = conditions: xenograft model in SD rats; Shin J Y et. al. 2012; cited from earlier work
male mice = test: Measurement of serum ALT, AST, TG and total cholesterol levels in ethanol-fed mice; format: in vivo; conditions: 50 mg/kg oral with 3 g/kg ethanol daily for 2 weeks
Method: as §3
Blood was collected from mouse abdominal aorta and centrifuged using a centrifuge at 3,300 rpm for 10 minutes to separate only the serum. The levels of ALT (alanine aminotransferase) and AST ([…]) in the serum were measured using a kit of IDEXX Laboratories (USA) in accordance with the manufacturer's instructions by VetTEST (IDEXX, USA). Further, 50 mg of the hepatic tissue was excised and ground, and then a chloroform-methanol (2:1) solution was added thereto, followed by centrifugation. The lipid components contained in the hepatic tissue were extracted, and the levels of triglyceride (TG) and total cholesterol in the extract solution were measured using a kit of IDEXX Laboratories (USA) in accordance with the manufacturer's instructions by VetTEST.

[2] = system: co-cultured hepatic stellate cells; test: Co-culture with ethanol: co-cultured hepatic stellate cells; format: cell-based, mice; conditions: 100 mM ethanol 12 hours, then 30 μM for 6 or 12 hours; FIG. 5d
Method: (§4) During the culture, they were treated with 100 mM ethanol for 12 hours, and then 30 μM ginsenoside F2 for 6 hours or 12 hours.

[3] = system: breast cancer stem cells (CSCs); conditions: Mai T T et al. 2012; cited from earlier work
co-cultured hepatocytes = test: Co-culture with ethanol: co-cultured hepatocytes (Western blotting, real-time PCR); format: cell-based, mice; conditions: 100 mM ethanol 12 hours, then 30 μM for 6 or 12 hours
Method: as §4

hepatic monocytes = test: IL-10-deficient mice: hepatic monocytes (flow cytometry, real-time PCR); format: in vivo
Method: (§5) 8-week-old IL-10-deficient male mice (weighing 25 g to 28 g) were orally administered with 3 g/kg ethanol and 50 mg/kg ginsenoside F2, together with a normal diet, every day for 2 weeks (E+GF2). A control group was fed with an equal amount of ethanol and vehicle instead of ginsenoside F2 (E+Veh). 2 weeks later, the sera, liver tissues, and hepatic monocytes were obtained from the mice by autopsy. Thereafter, in the same manner as in Example 1. (1), the serum ALT, AST, TG, and cholesterol levels were measured, and necrotic foci were examined in the liver tissue to count the number of necrotic foci in two sections of the liver. In the hepatic monocytes, macrophage and neutrophil expression levels were examined by flow cytometry using F4/80 or Gr1 antigen marker.

[4] = system: hepatocytes separated from mouse liver; test: Lipogenesis-related index in hepatocytes separated from mouse liver; format: in vivo; conditions: EtOH+GF2 vs EtOH+Vehicle; FIG. 4a
Method: as §3

Naive T cells = test: Differentiation of naive T cells into IL-17-producing Th17 cells; format: cell-based, mice; conditions: 0 μM to 30 μM
Method: Naive T cells were isolated from mice, and treated with 5 ng/mL TGF-β1 and 20 ng/mL IL-6, and then cultured in a CD3/28 antibody-coated dish for 3.5 days to differentiate the cells into proinflammatory Th17 cells (T helper 17 cells). In this regard, the cells were also treated with ginsenoside F2 by varying its concentration (0 μM to 30 μM), and markers for Th17 cells were examined, and the results are shown in FIGS. 7a to 7c. N represents naive T cells treated with none of TGF-β1, IL-6, and ginsenoside F2.

[5] = system: IL-10-deficient male mice; test: IL-10-deficient mice: serum levels and necrotic foci of liver tissue; format: in vivo; conditions: 50 mg/kg oral with 3 g/kg ethanol daily for 2 weeks
Method: as §5

[6] = system: monocytes isolated from the liver; test: Flow cytometry of monocytes / inflammatory cells isolated from the liver of ethanol-fed mice; format: in vivo; conditions: 3 g/kg ethanol daily for 2 weeks
Method: as §1
Thereafter, monocytes were isolated from the liver, and stained with the macrophage markers, CD11b and F4/80, followed by flow cytometry. As a result, treatment of ginsenoside F2 reduced a percentage of macrophage (FIG. 6a). Flow cytometry was also performed using the neutrophil markers CD11b and Gr-1. As a result, treatment of ginsenoside F2 reduced a percentage of neutrophil (FIG. 6b).
Further, inflammatory cells in the liver were stained with regulatory T cell (Treg) markers, CD4, CD25, and Foxp3. As a result, treatment of ginsenoside F2 increased regulatory T cells, and decreased Th17 cells (IL-17 and CD4 positive) which are one of proinflammatory cells.

liver tissue = test: Liver histological analysis (H&E, TUNEL, Oil-red O staining); format: in vivo, mice; conditions: 50 mg/kg oral with 3 g/kg ethanol, 2 weeks
Hepatic stellate cells = Hepatic stellate cells treated with TO901317 (real-time PCR and Western blotting); format: cell-based; conditions: 30 μM, 30 minutes later 10 μM TO901317, culture 12 hours
Method: Hepatic stellate cells were treated with 30 μM of ginsenoside F2, and 30 minutes later, further treated with 10 μM TO901317, followed by culture for 12 hours. FIGS. 5f and 5g show the results of real-time PCR and Western blotting of the cultured hepatic stellate cells.

[7] = system: human hepatocyte cell line HepG2A; test: LXR-mediated fat synthesis in HepG2A (real-time PCR); format: cell-based
Method: To examine a fat synthesis inhibition mechanism of ginsenoside F2, human hepatocyte cell line HepG2A was treated with 30 μM ginsenoside F2, and 30 minutes later, further treated with 10 μM TO901317, which induces fat synthesis as an LXR agonist stimulating fatty acid synthesis, followed by culture for 9 hours.
Further, HepG2A was treated with ginsenoside F2 by varying its concentration from 0 μM to 100 μM, and cultured for 12 hours.

liver tissues = test: Western blotting of proteins extracted from the liver tissues; format: in vivo, mice; conditions: FIG. 4c
Method: as §3
Expression of fat oxidation-inducing pAMPK was increased and expression of lipogenic SREBP1c and FAS was reduced by administration of ginsenoside F2.

[8] = 50 mg/kg, 2 weeks, flow cytometry, FIGS. 8d and 8e
[9] = real-time PCR using monocytes, FIG. 8h
[10] = 5 ng/mL TGF-β1 and 20 ng/mL IL-6, 3.5 days, FIGS. 7a and 7b
[11] = 0 μM to 100 μM, cultured for 12 hours, FIG. 5f
[12] = 30 μM, 30 minutes later 10 μM TO901317, culture 9 hours, real-time PCR, FIG. 5e

CC(C)=CCC[C@](C)(O[C@@H]1O[C@H](CO)[C@@H](O)[C@H](O)[C@H]1O)[C@H]1CC[C@]2(C)[C@@H]1[C@H](O)C[C@@H]1[C@@]3(C)CC[C@H](O[C@@H]4O[C@H](CO)[C@@H](O)[C@H](O)[C@H]4O)C(C)(C)[C@@H]3CC[C@]12C [ginsenoside F2]
cytokine effects (TNF-α, IL-6, IL-17, IL-10) by ELISA of mouse serum (mouse serum): consistent | expression of DAGL-α,β [1]: significantly reduced | fatty acid amide hydrolase (FAAH) expression [1]: significantly increased | expression of anti-inflammatory cytokine IL-10 (isolated monocytes): increased | expression of inflammatory cytokine IL-6 increased by alcohol (isolated monocytes): inhibited | expression of inflammatory cytokine IL-17 increased by alcohol (isolated monocytes): inhibited | expression of inflammatory cytokine TNF-α increased by alcohol (isolated monocytes): inhibited | anti-cancer effects on glioblastoma (glioblastoma): exhibits anti-cancer effects | total cholesterol level increased by alcohol (male mice; FIG. 2): reduced | liver injury index ALT level (male mice; FIG. 2(a)): did not significantly increase | AST level (male mice; FIG. 2(b)): lower | fatty liver index, TG level (male mice; FIG. 2(c)): reduced to the normal level | expression of DAGL-α,β [2]: reduced | cell apoptosis in breast cancer stem cells [3]: induces cell apoptosis accompanied by autophagy | expression of lipogenic FAS (co-cultured hepatocytes; Western blotting, FIG. 5b): decreased | expression of lipogenic SREBP1c (co-cultured hepatocytes; Western blotting, FIG. 5b): decreased | expression of lipolytic pAMPK (co-cultured hepatocytes; Western blotting, FIG. 5b): increased | expression of CB1R (co-cultured hepatocytes; real-time PCR, FIG. 5c): reduced | expression of FAS (co-cultured hepatocytes; real-time PCR, FIG. 5c): reduced | expression of SREBP1c (co-cultured hepatocytes; real-time PCR, FIG. 5c): reduced | other immune cells (hepatic monocytes; 50 mg/kg, 2 weeks, FIG. 8f): no significant effects | CD4+CD25+Foxp3+ regulatory T cells (hepatic monocytes; 50 mg/kg, 2 weeks, FIG. 8g): increased | expression of macrophage (F4/80) (hepatic monocytes; [8]): no significant effects | expression of neutrophil (Gr1) (hepatic monocytes; [8]): no significant effects | expression of Foxp3 (hepatic monocytes; [9]): increased | expression of inflammatory cytokine IL-6 (hepatic monocytes; [9]): increased | expression of inflammatory cytokine IL-17 (hepatic monocytes; [9]): increased | expression of ADH1 [4]: significantly reduced | expression of CB1R [4]: significantly reduced | expression of CYP2e1 [4]: significantly reduced | expression of FAS [4]: significantly reduced | expression of SREBP1c [4]: significantly reduced | IL-17-expressing Th17 cells (FACS) (Naive T cells; [10]): decreased | anti-inflammatory cytokine IL-10 (FACS) (Naive T cells; [10]): increased | Th17 cell-specific transcription factor RORγt (Naive T cells; real-time PCR, FIG. 7c): decreased | Th17 cell-specific transcription factor STAT3 (Naive T cells; real-time PCR, FIG. 7c): decreased | expression of Abca1 (Naive T cells; real-time PCR, FIG. 7c): decreased | ALT level ([5]; FIG. 8a): no significant effects | TG level ([5]; FIG. 8a): no significant effects | cholesterol level ([5]; FIG. 8a): no significant effects | necrotic foci of the liver tissue ([5]; FIGS. 8b and 8c): no great changes | Th17 cells (IL-17 and CD4 positive) ([6]; E+GF2 vs E+Veh): decreased | regulatory T cells (CD4, CD25, Foxp3) ([6]; E+GF2 vs E+Veh): increased | percentage of macrophage (CD11b, F4/80) ([6]; E+GF2 vs E+Veh, FIG. 6a): reduced | percentage of neutrophil (CD11b, Gr-1) ([6]; E+GF2 vs E+Veh, FIG. 6b): reduced | percentage of CD4 T cells ([6]; FIG. 6c): no significant effects | percentage of CD8 T cells ([6]; FIG. 6c): no significant effects | percentage of NK cells ([6]; FIG. 6c): no significant effects | percentage of NKT cells ([6]; FIG. 6c): no significant effects | Triglyceride accumulation (Oil-red O staining) (liver tissue; FIG. 3a): reduced | cell damage (TUNEL staining) (liver tissue; FIG. 3a): reduced | ethanol-induced inflammation (H&E staining) (liver tissue; FIG. 3a): reduced | TUNEL-positive cell death caused by alcohol administration (statistical analysis) (liver tissue; FIG. 3b): remarkably reduced | triglycerides in the liver tissue (statistical analysis) (liver tissue; FIG. 3c): remarkably reduced | expression of glutamate receptor mGluR1 or 5 (Hepatic stellate cells): significantly increased | concentration at which an excellent inhibitory effect on SREBP1c and FAS expression was observed [7, 11]: ≥ 40 µM | expression of FAS [7, 11]: reduced | expression of SREBP1c [7, 11]: reduced | expression of FAS increased by LXR agonist TO901317 [7, 12]: inhibit | expression of SREBP1c increased by LXR agonist TO901317 [7, 12]: inhibit | Expression of fat oxidation-inducing pAMPK (liver tissues): increased | expression of lipogenic FAS (liver tissues): reduced | expression of lipogenic SREBP1c (liver tissues): reduced
